This experiment addresses T1, heterodimers of GABAB1b and GABAB2 (Homo sapiens, UniProt O75899+Q9UBS5).
T1 construct: host or cells: HEK293
The experiment can be described thus: FLIPR intracellular calcium mobilization in HEK293 cells stably expressing GABAB receptor. The class given is cell-based. The note with it: 100 μM GABA = 100%; for EC50: concentration raising reaction rate from 5% with 1 μM GABA to 50%, read-out: Potency (PAM Potency of GABAB); for Emax: maximum reaction rate in presence of 1 μM GABA, test drug up to 30 μM, read-out: Efficacy (PAM Efficacy of GABAB). The source says:
A natural GABAB receptor has a heterodimeric structure consisting of two kinds of subunits of GABAB1 and GABAB2 (Nature, 1997, vol. 386, p. 239-246) In the subunit of GABAB1, two major splice variants referred to as GABAB1a and 1b exist. However, the two variants have no difference in the pharmacological effects in the receptor-downstreaming signals (Nature, 1998, vol. 396, p. 683-687).
In HEK293 cells expressing the heterodimers of GABAB1b and GABAB2, the PAM action in the presence of GABA was measured over time with a change in the intracellular Ca^2+ concentration using RFU (relative fluorescence units) as an index, and evaluated.
All vectors, wherein each vector was formed by human GABAB1b (NM_021903. 2), GABAB2 (NM_005458. 7), or Gαqo chimera, were incorporated by lipofection to establish stably expressing human embryonic kidney-derived cell lines, HEK293 cells (ATCC).
The Gαqo chimera was fabricated by the following method. The genes coding human Gαq (NM_002072.3) were cloned, and C-terminal 15 base pairs (1107-1121 bp) of ORF (41-1121 bp) of Gaq was substituted with C-terminal 15 base pairs (1948-1962 bp) of ORF (898-1962 bp) of human Gao (NM_138736. 2) into a Gαqo chimera.
A change in the intracellular concentration of calcium mobilized due to activation of a GABAB receptor was measured with a Fluorometric Imaging Plate Reader (FLIPR, Molecular Devices). The stably expressing cells established as described above were proliferated in a D-MEM medium containing a screening agent (0.5 mg/mL G418 Disulfate and 0.2 mg/mL Hydromycin B solution), 1% penicillin/streptomycin, and 10% FCS. About 1×10^4 cells/well were diluted and seeded in a black-wall, 384-well poly-D-lysin-coated plate (Becton Dickinson) in a D-MEM medium containing 10% FCS, but not a selective agent and 1% penicillin/streptomycin. After 24 hours, the medium was removed from the plate, and a Fluo-4 loaded solution (20 μL) was added to each well, followed by incubation at room temperature for 2 hours. The fluorescent reagent loaded solution was removed from each well, the cells were washed with a base buffer three times, and then a base buffer (20 μL) was added thereto, followed by analysis with FLIPR TETRA (Molecular Devices). The base buffer (10 μL) solution of the test drug was added thereto to a final concentration (1 nM to 30 μM) and the measurement of a change in the fluorescence was initiated. Thereafter, GABA (1 μM, 20 μL) was added thereto and the measurement was continued. The change in the fluorescence was measured every two or five seconds.
The maximum reaction rate of 100 μM GABA was taken as 100%. […]

The values below come from patent US9051339B2, “Sulfur-containing bicyclic compound” (Astellas Pharma Inc., priority 2013, dated 2015).

SMILES strings stand for the structures.

T1 sequence (Q9UBS5 1-844 isoform Q9UBS5-2): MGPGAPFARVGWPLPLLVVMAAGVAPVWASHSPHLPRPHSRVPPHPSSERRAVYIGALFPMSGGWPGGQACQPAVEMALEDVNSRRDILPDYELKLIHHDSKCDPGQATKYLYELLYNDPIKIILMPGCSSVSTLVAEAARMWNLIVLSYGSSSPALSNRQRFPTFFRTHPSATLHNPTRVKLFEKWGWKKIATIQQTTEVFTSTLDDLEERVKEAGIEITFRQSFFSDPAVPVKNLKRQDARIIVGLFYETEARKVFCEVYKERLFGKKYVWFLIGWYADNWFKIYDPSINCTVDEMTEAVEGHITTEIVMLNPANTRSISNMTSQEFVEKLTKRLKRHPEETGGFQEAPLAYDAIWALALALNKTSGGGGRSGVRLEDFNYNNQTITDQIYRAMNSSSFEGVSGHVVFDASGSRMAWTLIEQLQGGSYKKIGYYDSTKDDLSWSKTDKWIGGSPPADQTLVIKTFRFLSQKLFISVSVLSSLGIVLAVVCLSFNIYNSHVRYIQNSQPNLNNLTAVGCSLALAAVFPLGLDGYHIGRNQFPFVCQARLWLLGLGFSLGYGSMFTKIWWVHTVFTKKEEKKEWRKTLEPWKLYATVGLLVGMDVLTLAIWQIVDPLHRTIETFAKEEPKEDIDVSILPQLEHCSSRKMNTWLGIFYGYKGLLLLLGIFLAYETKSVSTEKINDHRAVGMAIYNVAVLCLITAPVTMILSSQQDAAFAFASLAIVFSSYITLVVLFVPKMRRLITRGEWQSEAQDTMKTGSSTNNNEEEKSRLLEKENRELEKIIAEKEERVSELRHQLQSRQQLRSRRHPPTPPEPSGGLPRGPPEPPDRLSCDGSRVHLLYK
T1 sequence (O75899 42-941): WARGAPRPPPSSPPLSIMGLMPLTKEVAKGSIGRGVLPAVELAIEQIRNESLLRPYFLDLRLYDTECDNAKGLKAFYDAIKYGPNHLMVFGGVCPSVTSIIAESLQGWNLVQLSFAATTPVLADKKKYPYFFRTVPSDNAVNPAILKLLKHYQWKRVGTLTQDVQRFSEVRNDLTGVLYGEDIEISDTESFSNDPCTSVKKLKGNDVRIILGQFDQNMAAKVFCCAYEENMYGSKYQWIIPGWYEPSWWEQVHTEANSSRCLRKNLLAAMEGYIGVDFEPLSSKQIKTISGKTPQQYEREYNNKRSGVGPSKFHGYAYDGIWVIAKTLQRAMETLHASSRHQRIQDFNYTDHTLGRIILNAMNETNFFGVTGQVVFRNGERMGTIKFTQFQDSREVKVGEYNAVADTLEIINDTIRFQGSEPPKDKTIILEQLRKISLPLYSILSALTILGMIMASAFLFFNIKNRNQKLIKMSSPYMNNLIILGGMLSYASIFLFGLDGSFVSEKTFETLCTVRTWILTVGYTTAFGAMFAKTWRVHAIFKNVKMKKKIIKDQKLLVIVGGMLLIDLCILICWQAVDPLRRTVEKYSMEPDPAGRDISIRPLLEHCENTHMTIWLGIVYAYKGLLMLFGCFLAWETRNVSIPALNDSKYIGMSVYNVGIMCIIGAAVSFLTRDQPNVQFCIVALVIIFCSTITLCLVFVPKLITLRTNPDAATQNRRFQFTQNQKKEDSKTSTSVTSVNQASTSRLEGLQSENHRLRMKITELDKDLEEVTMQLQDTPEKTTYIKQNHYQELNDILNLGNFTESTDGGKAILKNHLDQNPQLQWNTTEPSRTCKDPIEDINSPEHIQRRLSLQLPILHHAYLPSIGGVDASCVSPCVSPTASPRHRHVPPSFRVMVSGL

Consider `Cc1nc(CN2CC[C@@H](O)[C@H](O)C2)c2cc(C3CCC(C)(C)CC3)sc2n1` (single isomer, unassigned) [Ex31, trans-1-{[6-(4,4-dimethylcyclohexyl)-2-methylthieno[2,3-d]pyrimidin-4-yl]methyl}piperidine-3,4-diol], for which the EC50 was 220 nM and the Emax amounted to 273%.
Turning to `Cc1nc(CN2CCS(=O)(=O)CC2)c2cc(C3CCC(C)(C)CC3)sc2n1` [Ex2, 6-(4,4-dimethylcyclohexyl)-4-[(1,1-dioxidothiomorpholin-4-yl)methyl]-2-methylthieno[2,3-d]pyrimidine], the EC50 is 59 nM and the Emax came out at 470%.
